Columns and labels:
[1] = system: Rattus norvegicus; experiment: Distribution of radioactivity was determined in liver at 30 min after intravenous administration of 1,3-Disubstituted Triacylglycerols in rats; format: ADME, organism-based; details: in vivo, 0.5 h
[2] = system: Rattus norvegicus; experiment: Polyacrylamide Gel Electrophoresis (PAGE) to determined the concentration of high density lipoprotein (HDL) in rats after iv administration of [125I]-labeled 2-Oleolyl 1,3-disubstituted triglycerols was reported; format: ADME, organism-based; details: in vivo
[3] = system: Rattus norvegicus; experiment: Polyacrylamide Gel Electrophoresis (PAGE) to determined the concentration of albumin(ALB) in rats after iv administration of [125I]-labeled 2-Oleolyl 1,3-disubstituted triglycerols was reported; format: ADME, organism-based; details: in vivo
[4] = system: Rattus norvegicus; experiment: Distribution of radioactivity was determined in spleen at 24 hr after intravenous administration of [125I]-labeled 2-oleoglycerol 1,3-Bis-[omega-(3-amino-2,4,6-triiodophenyl)alkanoates] in rats; format: ADME, organism-based; details: in vivo
[5] = system: Rattus norvegicus; experiment: Analysis of lipid-soluble radioactivity in liver 24 hour after iv administration of [125I]-labeled 2-Oleoyl 1,3-disubstituted Triacylglycerols and represented as % CHCl3/CH3OH from rat; format: ADME, organism-based; details: in vivo
[6] = system: Rattus norvegicus; experiment: Distribution of radioactivity was determined in lung at 30 min after intravenous administration of [125I]-labeled 2-oleoglycerol 1,3-Bis-[omega-(3-amino-2,4,6-triiodophenyl)alkanoates] in rats; format: ADME, organism-based; details: in vivo, 0.5 h
[7] = system: Rattus norvegicus; experiment: Distribution of radioactivity was determined in blood at 48 hr after intravenous administration of 1,3-Disubstituted Triacylglycerols in rats; format: ADME, organism-based; details: in vivo
[8] = system: Rattus norvegicus; experiment: Analysis of lipid-soluble radioactivity in liver 0.5 hour after iv administration of [125I]-labeled 2-Oleoyl 1,3-disubstituted Triacylglycerols and represented as % CHCl3/CH3OH from rat; format: ADME, organism-based; details: in vivo
[9] = system: Rattus norvegicus; experiment: Distribution of radioactivity was determined in liver at 30 min after intravenous administration of [125I]-labeled 2-oleoglycerol 1,3-Bis-[omega-(3-amino-2,4,6-triiodophenyl)alkanoates] in rats; format: ADME, organism-based; details: in vivo, 0.5 h
[10] = system: Rattus norvegicus; experiment: Distribution of radioactivity was determined in liver at 3h after intravenous administration of 1,3-Disubstituted Triacylglycerols in rats; format: ADME, organism-based; details: in vivo
[11] = system: Rattus norvegicus; experiment: Distribution of radioactivity was determined in plasma at 3h after intravenous administration of [125I]-labeled 2-oleoglycerol 1,3-Bis-[omega-(3-amino-2,4,6-triiodophenyl)alkanoates] in rats; format: ADME, organism-based; details: in vivo
[12] = system: Rattus norvegicus; experiment: Polyacrylamide Gel Electrophoresis (PAGE) to determined the concentration of stacking gel(SG) in rats after iv administration of [125I]-labeled 2-Oleolyl 1,3-disubstituted triglycerols was reported; format: ADME, organism-based; details: in vivo
[13] = system: Rattus norvegicus; experiment: Analysis of lipid-soluble radioactivity in plasma 24 hour after iv administration of [125I]-labeled 2-Oleoyl 1,3-disubstituted Triacylglycerols and represented as % CHCl3/CH3OH from rat; format: ADME, organism-based; details: in vivo
[14] = system: Rattus norvegicus; experiment: Distribution of radioactivity was determined in kidney at 3h after intravenous administration of [125I]-labeled 2-oleoglycerol 1,3-Bis-[omega-(3-amino-2,4,6-triiodophenyl)alkanoates] in rats; format: ADME, organism-based; details: in vivo
[15] = system: Rattus norvegicus; experiment: Distribution of radioactivity was determined in thyroid at 24 hr after intravenous administration of [125I]-labeled 2-oleoglycerol 1,3-Bis-[omega-(3-amino-2,4,6-triiodophenyl)alkanoates] in rats; format: ADME, organism-based, Thyroid gland; details: in vivo
[16] = system: Rattus norvegicus; experiment: Distribution of radioactivity was determined in spleen at 24 hr after intravenous administration of 1,3-Disubstituted Triacylglycerols in rats; format: ADME, organism-based; details: in vivo
[17] = system: Rattus norvegicus; experiment: Distribution of radioactivity was determined in plasma at 24 hr after intravenous administration of [125I]-labeled 2-oleoglycerol 1,3-Bis-[omega-(3-amino-2,4,6-triiodophenyl)alkanoates] in rats; format: ADME, organism-based; design: unit not given here; details: in vivo
[18] = system: Rattus norvegicus; experiment: Analysis of lipid-soluble radioactivity in liver 0.5 hour after iv administration of [125I]-labeled 2-Oleoyl 1,3-disubstituted Triacylglycerols expressed as %parent compound (by TLC with authentic [125I]-labeled standard) from rat; format: ADME, organism-based; details: in vivo
[19] = system: Rattus norvegicus; experiment: Distribution of radioactivity was determined in blood at 30 min after intravenous administration of 1,3-Disubstituted Triacylglycerols in rats; format: ADME, organism-based; details: in vivo, 0.5 h
[20] = system: Rattus norvegicus; experiment: Distribution of radioactivity was determined in blood at 3h after intravenous administration of 1,3-Disubstituted Triacylglycerols in rats; format: ADME, organism-based; details: in vivo
[21] = system: Rattus norvegicus; experiment: Distribution of radioactivity was determined in lung at 24 hr after intravenous administration of [125I]-labeled 2-oleoglycerol 1,3-Bis-[omega-(3-amino-2,4,6-triiodophenyl)alkanoates] in rats; format: ADME, organism-based; details: in vivo
[22] = system: Rattus norvegicus; experiment: Distribution of radioactivity was determined in liver at 24 hr after intravenous administration of [125I]-labeled 2-oleoglycerol 1,3-Bis-[omega-(3-amino-2,4,6-triiodophenyl)alkanoates] in rats; format: ADME, organism-based; details: in vivo
[23] = system: Rattus norvegicus; experiment: Distribution of radioactivity was determined in blood at 24 hr after intravenous administration of 1,3-Disubstituted Triacylglycerols in rats; format: ADME, organism-based; details: in vivo
[24] = system: Rattus norvegicus; experiment: Distribution of radioactivity was determined in spleen at 48 hr after intravenous administration of 1,3-Disubstituted Triacylglycerols in rats; format: ADME, organism-based; details: in vivo
[25] = system: Rattus norvegicus; experiment: Distribution of radioactivity was determined in plasma at 30 min after intravenous administration of [125I]-labeled 2-oleoglycerol 1,3-Bis-[omega-(3-amino-2,4,6-triiodophenyl)alkanoates] in rats; format: ADME, organism-based; details: in vivo, 0.5 h
[26] = system: Rattus norvegicus; experiment: Distribution of radioactivity was determined in thyroid at 30 min after intravenous administration of [125I]-labeled 2-oleoglycerol 1,3-Bis-[omega-(3-amino-2,4,6-triiodophenyl)alkanoates] in rats; format: ADME, organism-based, Thyroid gland; details: in vivo, 0.5 h
[27] = system: Rattus norvegicus; experiment: Distribution of radioactivity was determined in spleen at 3h after intravenous administration of [125I]-labeled 2-oleoglycerol 1,3-Bis-[omega-(3-amino-2,4,6-triiodophenyl)alkanoates] in rats; format: ADME, organism-based; details: in vivo
[28] = system: Rattus norvegicus; experiment: Distribution of radioactivity was determined in heart at 3h after intravenous administration of [125I]-labeled 2-oleoglycerol 1,3-Bis-[omega-(3-amino-2,4,6-triiodophenyl)alkanoates] in rats; format: ADME, organism-based; details: in vivo
[29] = system: Rattus norvegicus; experiment: Analysis of lipid-soluble radioactivity in liver 24 hour after iv administration of [125I]-labeled 2-Oleoyl 1,3-disubstituted Triacylglycerols expressed as %parent compound (by TLC with authentic [125I]-labeled standard) from rat; format: ADME, organism-based; details: in vivo
[30] = system: Rattus norvegicus; experiment: Distribution of radioactivity was determined in thyroid at 3h after intravenous administration of [125I]-labeled 2-oleoglycerol 1,3-Bis-[omega-(3-amino-2,4,6-triiodophenyl)alkanoates] in rats; format: ADME, organism-based, Thyroid gland; details: in vivo
[31] = system: Rattus norvegicus; experiment: Distribution of radioactivity was determined in spleen at 30 min after intravenous administration of [125I]-labeled 2-oleoglycerol 1,3-Bis-[omega-(3-amino-2,4,6-triiodophenyl)alkanoates] in rats; format: ADME, organism-based; details: in vivo, 0.5 h
[32] = system: Rattus norvegicus; experiment: Distribution of radioactivity was determined in blood at 3h after intravenous administration of [125I]-labeled 2-oleoglycerol 1,3-Bis-[omega-(3-amino-2,4,6-triiodophenyl)alkanoates] in rats; format: ADME, organism-based; details: in vivo
[33] = system: Rattus norvegicus; experiment: Distribution of radioactivity was determined in lung at 3h after intravenous administration of [125I]-labeled 2-oleoglycerol 1,3-Bis-[omega-(3-amino-2,4,6-triiodophenyl)alkanoates] in rats; format: ADME, organism-based; details: in vivo
[34] = system: Rattus norvegicus; experiment: Distribution of radioactivity was determined in liver at 48 hr after intravenous administration of 1,3-Disubstituted Triacylglycerols in rats; format: ADME, organism-based; details: in vivo
[35] = system: Rattus norvegicus; experiment: Distribution of radioactivity was determined in heart at 24 after intravenous administration of [125I]-labeled 2-oleoglycerol 1,3-Bis-[omega-(3-amino-2,4,6-triiodophenyl)alkanoates] in rats; format: ADME, organism-based; details: in vivo

| Radioactivity per organ [1] | Radioactivity [2] | Radioactivity [3] | Distribution of radioactivity [4] | Lipid-soluble radioactivity [5] | Distribution of radioactivity [6] | Distribution of radioactivity [7] | Lipid-soluble radioactivity [8] | Distribution of radioactivity [9] | Distribution of radioactivity [10] | Distribution of radioactivity [11] | Radioactivity [12] | Lipid-soluble radioactivity [13] | Distribution of radioactivity [14] | Distribution of radioactivity [15] | Distribution of radioactivity [16] | Distribution of radioactivity [17] | Lipid-soluble radioactivity [18] | Distribution of radioactivity [19] | Distribution of radioactivity [20] | SMILES | further results |
| --- | --- | --- | --- | --- | --- | --- | --- | --- | --- | --- | --- | --- | --- | --- | --- | --- | --- | --- | --- | --- | --- |
| 66.8 % dose/organ | 7% | 15% | 10.4 % dose/g | 90.3 | 0.26 % dose/g | 0.8 % dose per organ | 91.3 | 7.01 % dose/g | 66 % dose/organ | 0.24 % dose/g | 72.6% | 80.6 | 0.21 % dose/g | 5.13 % dose/g | 5.8 % dose/organ | 0.14 | 96.8 | 4.8 % dose/organ | 2.2 % dose/organ | CCCCCCCC/C=C/CCCCCCCC(=O)OC(COC(=O)CCCCCc1c(I)cc(I)c(N)c1I)COC(=O)CCCCCc1c(I)cc(I)c(N)c1I | Distribution of radioactivity [21]: 0.26 % dose/g; Distribution of radioactivity [22]: 4.2 % dose/g; Distribution of radioactivity [23]: 1.1 % dose/organ; Distribution of radioactivity [24]: 3.1 % dose per organ; Distribution of radioactivity [25]: 0.65 % dose/g; Distribution of radioactivity [26]: 0.54 % dose/g; Distribution of radioactivity [27]: 23.5 % dose/g; Distribution of radioactivity [28]: 0.2 % dose/g; Lipid-soluble radioactivity [29]: 97.9; Distribution of radioactivity [30]: 0.91 % dose/g; Distribution of radioactivity [31]: 24.4 % dose/g; Distribution of radioactivity [32]: 0.2 % dose/g; Distribution of radioactivity [33]: 0.21 % dose/g; Distribution of radioactivity [34]: 22.4 % dose/organ; Distribution of radioactivity [35]: 0.07 % dose/g |
| 78 % dose/organ | 2.5% | 4.9% | 21.7 % dose/g | 93.7 | 0.34 % dose/g | 0.1 % dose per organ | 97.5 | 9.67 % dose/g | 80 % dose/organ | 0.03 % dose/g | 83.5% | 83 | 0.03 % dose/g | 17.3 % dose/g | 12.5 % dose/organ | 0.01 | 78.6 | 2.6 % dose/organ | 0.3 % dose/organ | CCCCCCCC/C=C/CCCCCCCC(=O)OC(COC(=O)C(CC)Cc1c(I)cc(I)c(N)c1I)COC(=O)C(CC)Cc1c(I)cc(I)c(N)c1I (stereo not given) | Distribution of radioactivity [21]: 0.62 % dose/g; Distribution of radioactivity [22]: 10.2 % dose/g; Distribution of radioactivity [23]: 0.1 % dose/organ; Distribution of radioactivity [24]: 9.8 % dose per organ; Distribution of radioactivity [25]: 0.42 % dose/g; Distribution of radioactivity [26]: 2.88 % dose/g; Distribution of radioactivity [27]: 17.7 % dose/g; Distribution of radioactivity [28]: 0.25 % dose/g; Lipid-soluble radioactivity [29]: 64.7; Distribution of radioactivity [30]: 5.08 % dose/g; Distribution of radioactivity [31]: 24.8 % dose/g; Distribution of radioactivity [32]: 0.02 % dose/g; Distribution of radioactivity [33]: 0.2 % dose/g; Distribution of radioactivity [34]: 71.6 % dose/organ; Distribution of radioactivity [35]: 0.06 % dose/g |

Source: ChEMBL document CHEMBL1128242, “Polyiodinated triglyceride analogs as potential computed tomography imaging agents for the liver” (J Med Chem, 1995)
